Results from PMC6017357, “In Vitro Inhibitory Effects of Synthetic Cannabinoid EAM-2201 on Cytochrome P450 and UDP-Glucuronosyltransferase Enzyme Activities in Human Liver Microsomes” (Molecules : A Journal of Synthetic Chemistry and Natural …, 2018).

Target: T1, UGT1A6 (Homo sapiens, UniProt P19224)
T1 construct: ultrapooled human liver microsomes (0.2 mg/mL), 5 mM UDPGA; from tissue; host or cells: ultrapooled human liver microsomes
T1 sequence (P19224 27-532): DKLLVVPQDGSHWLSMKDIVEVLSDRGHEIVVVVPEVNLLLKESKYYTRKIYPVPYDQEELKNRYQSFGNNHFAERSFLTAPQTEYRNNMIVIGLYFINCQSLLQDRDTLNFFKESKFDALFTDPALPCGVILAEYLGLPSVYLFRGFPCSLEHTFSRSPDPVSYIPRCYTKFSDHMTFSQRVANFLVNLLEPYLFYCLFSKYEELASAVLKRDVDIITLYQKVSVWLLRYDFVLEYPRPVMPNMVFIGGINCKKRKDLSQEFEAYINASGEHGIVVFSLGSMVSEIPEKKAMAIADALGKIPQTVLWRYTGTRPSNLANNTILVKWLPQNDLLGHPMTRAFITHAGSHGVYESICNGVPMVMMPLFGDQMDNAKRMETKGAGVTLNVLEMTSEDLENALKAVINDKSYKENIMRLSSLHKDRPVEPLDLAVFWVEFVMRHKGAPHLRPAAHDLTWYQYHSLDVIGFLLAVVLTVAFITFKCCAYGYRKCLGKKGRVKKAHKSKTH
Experiment: UGT1A6-catalyzed N-acetylserotonin glucuronidation in human liver microsomes
Format: in vitro ADME
Conditions: at 50 µM
Description: The inhibitory effects of EAM-2201 on UGT1A1, UGT1A3, UGT1A4, UGT1A6, UGT1A9 and UGT2B7 were evaluated using LC-MS/MS and the cocktail of UGT substrates as previously described. Each incubation mixture was prepared in a final volume of 100 µL as follows: ultrapooled human liver microsomes (0.2 mg/mL), 5 mM UDPGA, 10 mM magnesium chloride, alamethicin (25 µg/mL), 50 mM Tris buffer (pH 7.4), various concentrations of EAM-2201 in DMSO (final concentrations of 1–50 µM, 0.5% DMSO) and the UGT enzyme-specific substrates of two cocktail sets (set A: 0.5 µM SN-38, 2 µM chenodeoxycholic acid and 0.5 µM trifluoperazine; set B: 1 µM N-acetylserotonin, 0.2 µM mycophenolic acid and 1 µM naloxone, acetonitrile content, 0.5%). […] Supernatant from sets A and B (50 µL of each) was mixed and aliquots (5 µL) were analyzed by LC-MS/MS. […]
The metabolites formed from the six UGT cocktail substrates were simultaneously measured using LC-MS/MS [41]. […] Each metabolite was quantified via SRM in the negative ion mode: chenodeoxycholic acid 24-acyl-β-glucuronide, 567.2 > 391.0; mycophenolic acid glucuronide, 495.2 > 318.9; and propofol glucuronide (IS), 353.3 > 177.1; and in the positive ion mode: SN-38 glucuronide, 569.0 > 393.0; trifluoperazine glucuronide, 584.2 > 408.1; N-acetylserotonin-β-D-glucuronide, 395.2 > 219.0; naloxone 3-β-D-glucuronide, 504.0 > 310.0; and meloxicam (IS), 352.0 > 115.1. […]

For `CCc1ccc(C(=O)c2cn(CCCCCF)c3ccccc23)c2ccccc12` [EAM-2201, (4-ethyl-1-naphthalenyl)[1-(5-fluoropentyl)-1H-indol-3-yl]-methanone], the “inhibition of UGT1A6-catalyzed N-acetylserotonin glucuronidation” value was “negligibly inhibited”.
